Laboratory results: patent US20220362396A1, “AMINO-PYRAZINECARBOXAMIDE COMPOUNDS, CONJUGATES, AND USES THEREOF” (Silverback Therapeutics, Inc., priority 2018, published 2022)

Key:
[1] = test system: TGFβ/SMAD Signaling Pathway SBE reporter cell line; experiment: TGFβ reporter assay, in vitro small molecule screening (luciferase); format: cell-based; conditions: TGFβ stimulation, luminescence
Experimental: TGFβ/SMAD Signaling Pathway SBE reporter cell line was obtained from BPS Bioscience. Cells were passed, expanded, and stored in liquid nitrogen as per the supplier's instructions with the exception that growth media is changed to DMEM-C with Geneticin (DMEM supplemented with 10% fetal bovine serum, 1×NEAA, 1 mM Pyruvate, 2 mM glutamine, 50 μg/mL penicillin, 50 U/mL streptomycin and 400 μg/mL of Geneticin). The assay media was MEM supplemented with 0.5% fetal bovine serum, 1×NEAA, 1 mM Pyruvate, 50 μg/mL penicillin and 50 U/mL streptomycin.
Test samples (at desired concentrations diluted in assay media) were added to a 96-well assay plate, 20 μL per well. Reporter cells were harvested from the tissue culture flasks by incubation in small quantity of PBS at 37° C. for two minutes after the media in the flask is removed and cells rinsed with PBS. Cells were counted and diluted in the assay media at approximately 0.5×10^6 cells/mL and then 80 μL/well of cells were added to the assay plate containing the 20 μL/well of test samples (or media only), and incubated for approximately 5-6 hours at 37° C. in a 5% CO2 humidified incubator. After that time, 15 μL of TGFβ diluted to 12 ng/mL in the assay media was added to the plate. Controls included TGFβ titration (from 50 to 0 ng/mL) without inhibitors, and media only (without cells, inhibitor or TGFβ). Plates were incubated at 37° C. in a 5% CO2 humidified incubator for 18 h. Luciferase substrate solution is subsequently added at 100 μL per well, incubated in the dark at room temperature for 15 min, and luminescence is measured using a luminometer. EC50 values and curve fits were obtained using Prism (GraphPad Software).

TGFBR2 = target: T1, TGFBR2 (Homo sapiens, UniProt P37173); experiment: TGFBR2 RBC assay (enzyme inhibition assay, Reaction Biology Corp.); format: biochemical
T1 construct: purchased Reaction Biology Corp
Experimental: Compounds of the disclosure were also assayed by Reaction Biology Corp. using the TGFBR2 RBC assay (enzyme inhibition assay). […] NT refers to not tested.

T1 sequence (P37173 23-567): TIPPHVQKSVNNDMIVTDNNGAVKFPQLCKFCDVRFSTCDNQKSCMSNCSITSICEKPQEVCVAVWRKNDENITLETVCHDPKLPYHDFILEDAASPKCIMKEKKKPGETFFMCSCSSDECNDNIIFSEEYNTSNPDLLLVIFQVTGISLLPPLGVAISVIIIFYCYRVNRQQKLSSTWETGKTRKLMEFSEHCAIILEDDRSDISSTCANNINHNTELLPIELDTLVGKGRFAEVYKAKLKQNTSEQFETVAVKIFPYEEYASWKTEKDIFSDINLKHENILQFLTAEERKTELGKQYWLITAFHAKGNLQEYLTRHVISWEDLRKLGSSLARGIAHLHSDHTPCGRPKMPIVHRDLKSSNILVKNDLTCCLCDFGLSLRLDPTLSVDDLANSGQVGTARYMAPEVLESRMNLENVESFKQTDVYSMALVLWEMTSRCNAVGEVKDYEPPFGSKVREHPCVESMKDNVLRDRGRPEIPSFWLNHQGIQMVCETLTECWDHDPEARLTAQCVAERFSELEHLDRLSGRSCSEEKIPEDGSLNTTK

SMILES | EC50 [1] [nM] | IC50 (TGFBR2) [nM]
Nc1ncc(-c2ccc3c(c2)CC(N)C3)nc1C(=O)Nc1cnccc1N1CCOCC1 (centres unmarked) [Compound 213] | 50 to 100 | < 50
NCC1COCCN1c1ccncc1NC(=O)c1nc(-c2ccc(CCNC(=O)OCc3ccccc3)cc2)cnc1N (centres unmarked) [Compound 37] | > 1000 | > 1000
CC(=O)CCC(=O)NCCc1ccc(-c2cnc(N)c(C(=O)Nc3cnccc3N3CCOCC3)n2)cc1 [Compound 51] | 50 to 100 | < 50
CN(C)c1ccc(-c2cnc(N)c(C(=O)Nc3cnccc3N3CCOCC3)n2)cc1 [Compound 259] | < 50 | < 50
Nc1ncc(-c2ccc(CCNC(=O)OCc3ccccc3)cc2)nc1C(=O)Nc1cnccc1N1CCOCC1 [Compound 1.1, Benzyl (4-(5-amino-6-((4-morpholinopyridin-3-yl)carbamoyl)pyrazin-2-yl)phenethyl)carbamate] | 100 to 1000 | < 50
Nc1ncc(-c2ccc3c(c2)CCC3N)nc1C(=O)Nc1cnccc1N1CCOCC1 (centres unmarked) [Compound 220] | 100 to 1000 | < 50
Nc1ncc(-c2ccc(CCNC(=O)OCc3ccccc3)cc2)nc1C(=O)Nc1cnccc1-c1ccc(=O)[nH]c1 [Compound 22] | 50 to 100 | 100 to 1000
NCCNC(=O)c1ccc(-c2cnc(N)c(C(=O)Nc3cnccc3N3CCOCC3)n2)cc1 [Compound 75] | 100 to 1000 | < 50
NCCc1ccc(-c2cnc(N)c(C(=O)Nc3cnccc3-c3ccccn3)n2)cc1 [Compound 132] | 100 to 1000 | < 50
CC1NCCc2cc(-c3cnc(N)c(C(=O)Nc4cnccc4N4CCOCC4)n3)ccc21 (centres unmarked) [Compound 234] | 100 to 1000 | < 50
Nc1ncc(-c2ccc(OC3CCNCC3)cc2)nc1C(=O)Nc1cnccc1N1CCOCC1 [Compound 167] | 50 to 100 | < 50
CC(C)[C@H](NC(=O)OC(C)(C)C)C(=O)N[C@@H](C)C(=O)NCc1ccc(-c2cnc(N)c(C(=O)Nc3cnccc3N3CCOCC3)n2)cc1 [Compound 107] | 100 to 1000 | < 50
COc1ccc(-c2cnc(N)c(C(=O)Nc3cnccc3N3CCOCC3)n2)cc1 [Compound 156] | 100 to 1000 | < 50
Nc1ncc(-c2ccc3c(c2)CCC(=O)N3)nc1C(=O)Nc1cnccc1N1CCOCC1 [Compound 198] | 100 to 1000 | 50 to 100
Nc1ncc(-c2ccc(CCNC(=O)OCc3ccccc3)cc2)nc1C(=O)Nc1cnccc1-c1ccc2c(c1)OCO2 [Compound 26] | 100 to 1000 | < 50
CC1(C)CCNc2ccc(-c3cnc(N)c(C(=O)Nc4cnccc4N4CCOCC4)n3)cc21 [Compound 214] | 100 to 1000 | < 50
Nc1ncc(-c2ccc(CCNC(=O)CCC(=O)c3ccccc3)cc2)nc1C(=O)Nc1cnccc1N1CCOCC1 [Compound 54] | 50 to 100 | < 50
Nc1ncc(-c2ccc(CCNC(=O)OCc3ccccc3)cc2)nc1C(=O)Nc1cnccc1-c1ccnc2ccccc12 [Compound 19] | > 1000 | > 1000
NCCCOc1ccc(-c2cnc(N)c(C(=O)Nc3cnccc3N3CCOCC3)n2)cc1 [Compound 65] | 100 to 1000 | < 50
CN(CCNC(=O)OC(C)(C)C)c1ccc(-c2cnc(N)c(C(=O)Nc3cnccc3N3CCOCC3)n2)cc1 [Compound 267] | 100 to 1000 | < 50
COC(=O)[C@H](N)Cc1ccc(-c2cnc(N)c(C(=O)Nc3cnccc3N3CCOCC3)n2)cc1 [Compound 195] | 100 to 1000 | < 50
Nc1ncc(-c2ccc(O[C@H]3C[C@H](N)C3)cc2)nc1C(=O)Nc1cnccc1N1CCOCC1 [Compound 222] | 100 to 1000 | < 50
Nc1ncc(-c2ccc(CC(=O)N3CCNCC3)cc2)nc1C(=O)Nc1cnccc1N1CCOCC1 [Compound 92] | 100 to 1000 | < 50

SMILES | EC50 [1] [nM] | IC50 (TGFBR2) [nM]
NCCc1ccc(-c2cnc(N)c(C(=O)Nc3cncc(-c4ccccc4N)c3)n2)cc1 [Compound 148] | > 1000 | 100 to 1000
Nc1ncc(-c2ccc3c(c2)CCNC3=O)nc1C(=O)Nc1cnccc1N1CCOCC1 [Compound 201] | 100 to 1000 | 100 to 1000
Nc1ncc(-c2ccc(CCNC(=O)OCc3ccccc3)cc2)nc1C(=O)Nc1cnccc1-c1ccncc1 [Compound 5.1, Benzyl (4-(6-([4,4′-bipyridin]-3-ylcarbamoyl)-5-aminopyrazin-2-yl)phenethyl)carbamate] | 100 to 1000 | < 50
Nc1ncc(-c2ccc(CCC(=O)N3CCNCC3)cc2)nc1C(=O)Nc1cnccc1N1CCOCC1 [Compound 88] | 50 to 100 | < 50
CC(C)(C)OC(=O)N[C@H](CO)Cc1ccc(-c2cnc(N)c(C(=O)Nc3cnccc3N3CCOCC3)n2)cc1 [Compound 209] | 100 to 1000 | < 50
Nc1ncc(-c2ccc3c(c2)CNCC3)nc1C(=O)Nc1cnccc1N1CCOCC1 [Compound 67] | 50 to 100 | 50 to 100
CC(N)COc1ccc(-c2cnc(N)c(C(=O)Nc3cnccc3N3CCOCC3)n2)cc1 (centres unmarked) [Compound 205] | 100 to 1000 | < 50
CC(C)(C)OC(=O)N[C@@H](CO)Cc1ccc(-c2cnc(N)c(C(=O)Nc3cnccc3N3CCOCC3)n2)cc1 [Compound 199] | > 1000 | < 50
CC1c2ccc(-c3cnc(N)c(C(=O)Nc4cnccc4N4CCOCC4)n3)cc2CCN1C(=O)OC(C)(C)C (centres unmarked) [Compound 225] | 100 to 1000 | 100 to 1000
Nc1ncc(-c2ccc(C[C@H](N)C(=O)O)cc2)nc1C(=O)Nc1cnccc1N1CCOCC1 [Compound 208] | > 1000 | < 50
Cc1nccn1-c1ccncc1NC(=O)c1nc(-c2ccc(CCN)cc2)cnc1N [Compound 138] | > 1000 | < 50
Nc1ncc(-c2cccc(CCCNC(=O)OCc3ccccc3)c2)nc1C(=O)Nc1cnccc1N1CCOCC1 [Compound 178] | 100 to 1000 | < 50
Nc1ncc(-c2ccc(O[C@@H]3CCCNC3)cc2)nc1C(=O)Nc1cnccc1N1CCOCC1 [Compound 168] | 50 to 100 | < 50
Nc1ncc(-c2ccc(O[C@@H]3CCN(C(=O)OCc4ccccc4)C3)cc2)nc1C(=O)Nc1cnccc1N1CCOCC1 [Compound 162] | 100 to 1000 | < 50
Nc1ncc(-c2ccc(C[C@@H](N)C(=O)O)cc2)nc1C(=O)Nc1cnccc1N1CCOCC1 [Compound 197] | > 1000 | 100 to 1000
Nc1ncc(-c2ccc3c(c2)CCCO3)nc1C(=O)Nc1cnccc1N1CCOCC1 [Compound 174] | 100 to 1000 | < 50
CC(COc1cccc(-c2cnc(N)c(C(=O)Nc3cnccc3N3CCOCC3)n2)c1)NC(=O)OC(C)(C)C (centres unmarked) [Compound 189] | > 1000 | < 50
[N-]=[N+]=NCC1COCCN1c1ccncc1NC(=O)c1nc(-c2ccc(CCNC(=O)OCc3ccccc3)cc2)cnc1N (centres unmarked) [Compound 27] | > 1000 | > 1000
CNCCc1ccc(-c2cnc(N)c(C(=O)Nc3cnccc3N3CCOCC3)n2)cc1 [Compound 44] | 100 to 1000 | 100 to 1000
CCOC(=O)[C@@H]1CNC[C@H]1c1ccc(-c2cnc(N)c(C(=O)Nc3cnccc3N3CCOCC3)n2)cc1 [Compound 227] | 50 to 100 | < 50
COc1cnccc1-c1ccncc1NC(=O)c1nc(-c2ccc(CCNC(=O)OCc3ccccc3)cc2)cnc1N [Compound 33] | 100 to 1000 | > 1000
NCC1NCCc2cc(-c3cnc(N)c(C(=O)Nc4cnccc4N4CCOCC4)n3)ccc21 (centres unmarked) [Compound 235] | 100 to 1000 | < 50
Nc1ncc(-c2ccc3c(c2)CCNC3)nc1C(=O)Nc1cnccc1N1CCOCC1 [Compound 77] | 50 to 100 | 50 to 100
